From ChEMBL document CHEMBL3600287, “New heterocyclic compounds: Synthesis and antitrypanosomal properties” (Bioorg Med Chem, 2015)

Key:
[1] = system: Trypanosoma brucei brucei; assay: Antitrypanosomal activity against Trypanosoma brucei brucei CMP infected in Swiss mouse assessed as parasite number level ul of blood at 100 umol/kg, ip administered as single dose measured on day 2; assay type: functional
[2] = system: Trypanosoma brucei gambiense; assay: Antitrypanosomal activity against Trypanosoma brucei gambiense FeoITMAP/1893 assessed as inhibition of parasite growth after 72 hrs by resazurin dye based microplate reader analysis; assay type: functional, organism-based; conditions: FeoITMAP/1893, 72 h
[3] = system: Trypanosoma brucei brucei; assay: Antitrypanosomal activity against Trypanosoma brucei brucei CMP infected in Swiss mouse assessed as cure rate at 50 umol/kg, ip administered as single dose; assay type: functional
[4] = system: Trypanosoma brucei brucei; assay: Antitrypanosomal activity against Trypanosoma brucei brucei CMP infected in Swiss mouse assessed as parasite number level ul of blood at 50 umol/kg, ip administered as single dose measured on day 3; assay type: functional
[5] = system: Mus musculus; assay: Toxicity against Swiss mouse infected with Trypanosoma brucei brucei CMP assessed as animal death at 50 umol/kg, ip administered as single dose; assay type: organism-based; conditions: in vivo
[6] = system: Trypanosoma brucei brucei; assay: Antitrypanosomal activity against Trypanosoma brucei brucei CMP infected in Swiss mouse assessed as mean survival time at 100 umol/kg, ip administered as single dose; assay type: functional
[7] = Selectivity index, ratio of CC50 for mouse 3T6 cells to IC50 for Trypanosoma brucei gambiense strain FeoITMAP/1893; assay type: functional
[8] = system: Mus musculus; assay: Toxicity against Swiss mouse infected with Trypanosoma brucei brucei CMP assessed as animal death at 100 umol/kg, ip administered as single dose; assay type: organism-based; conditions: in vivo
[9] = system: Trypanosoma brucei brucei; assay: Antitrypanosomal activity against Trypanosoma brucei brucei CMP infected in Swiss mouse assessed as parasite number level ul of blood at 100 umol/kg, ip administered as single dose measured on day 4; assay type: functional
[10] = system: Trypanosoma brucei brucei; assay: Antitrypanosomal activity against Trypanosoma brucei brucei CMP infected in Swiss mouse assessed as parasite number level ul of blood at 50 umol/kg, ip administered as single dose measured on day 4; assay type: functional
[11] = system: Trypanosoma brucei brucei; assay: Antitrypanosomal activity against Trypanosoma brucei brucei CMP infected in Swiss mouse assessed as parasite number level ul of blood at 100 umol/kg, ip administered as single dose measured on day 3; assay type: functional
[12] = system: Trypanosoma brucei brucei; assay: Antitrypanosomal activity against Trypanosoma brucei brucei CMP infected in Swiss mouse assessed as cure rate at 100 umol/kg, ip administered as single dose; assay type: functional
[13] = system: Trypanosoma brucei brucei; assay: Antitrypanosomal activity against Trypanosoma brucei brucei CMP infected in Swiss mouse assessed as parasite number level ul of blood at 50 umol/kg, ip administered as single dose measured on day 2; assay type: functional
[14] = Cytotoxicity against mouse 3T6 cells assessed as inhibition of cell proliferation after 48 hrs by MTT assay; assay type: cell-based
[15] = system: Trypanosoma brucei brucei; assay: Antitrypanosomal activity against Trypanosoma brucei brucei CMP infected in Swiss mouse assessed as mean survival time at 50 umol/kg, ip administered as single dose; assay type: functional
[16] = Cytotoxicity against monkey LLC-MK2 cells; assay type: cell-based, Macaca mulatta; conditions: rhesus monkey
[17] = system: Trypanosoma brucei brucei; assay: Antitrypanosomal activity against Trypanosoma brucei brucei CMP infected in Swiss mouse assessed as parasite number level ul of blood at 100 umol/kg, ip administered as single dose measured on day 30; assay type: functional

## CCOC(=O)c1cn(C2CC2)c2cc(N3CCN(Cc4ccccc4)CC3)c(F)cc2c1=O
[1]
  Activity: 0 µL⁻¹
[2]
  IC50: 6.03 µM
[3]
  Activity: 0%
[4]
  Activity: 0 µL⁻¹
[5]
  Activity: Non-toxic
[6]
  MST: 8.2 days
[7]
  Ratio CC50/IC50: 5
[8]
  Activity: Non-toxic
[9]
  Activity: 0 µL⁻¹
[10]
  Activity: 7 µL⁻¹
[11]
  Activity: 0 µL⁻¹
[12]
  Activity: 0%
[13]
  Activity: 0 µL⁻¹
[14]
  CC50 at 48 h: > 30 µM
[15]
  MST: 6.1 days

## CCOC(=O)c1cn(C2CC2)c2cc(N3CCN(CC45CC6CC(CC(C6)C4)C5)CC3)c(F)cc2c1=O
[2]
  IC50: 23.1 µM
[7]
  Ratio CC50/IC50: 1.2
[14]
  CC50 at 48 h: 27.8 µM

## Fc1ccc2[nH]c(-c3ccc(Nc4ccnc5cc(Cl)ccc45)cc3)nc2c1
[1]
  Activity: 0 µL⁻¹
[2]
  IC50: 1.98 µM
[3]
  Activity: 0%
[4]
  Activity: 117 µL⁻¹
[5]
  Activity: Non-toxic
[6]
  MST: 1.2 days
[7]
  Ratio CC50/IC50: 5.3
[8]
  Activity: Non-toxic
[9]
  Activity: 31590 µL⁻¹
[16]
  CC50: 10.6 µM
[10]
  Activity: 28317 µL⁻¹
[11]
  Activity: 97 µL⁻¹
[12]
  Activity: 0%
[13]
  Activity: 13.7 µL⁻¹
[15]
  MST: 1.1 days

## Clc1ccc2c(Nc3ccc(-c4nc5ccccc5[nH]4)cc3)ccnc2c1
[2]
  IC50: 3.79 µM
[7]
  Ratio CC50/IC50: 4.1
[16]
  CC50: 15.5 µM

## N=C(N)c1ccc(OCCCCCOc2ccc(C(=N)N)cc2)cc1.O=S(=O)(O)CCO
[17]
  Activity: 0 µL⁻¹
[6]
  MST: >30 days
[8]
  Activity: Non-toxic
[9]
  Activity: 0 µL⁻¹
[11]
  Activity: 0 µL⁻¹
[12]
  Activity: 100%

## CCN(CC)CCCC(C)Nc1ccnc2cc(Cl)ccc12.O=P(O)(O)O.O=P(O)(O)O (stereo not drawn) [CHLOROQUINE PHOSPHATE]
[1]
  Activity: 23.7 µL⁻¹
[6]
  MST: 0 days
[8]
  Activity: Non-toxic
[9]
  Activity: 42607 µL⁻¹
[11]
  Activity: 498 µL⁻¹
[12]
  Activity: 0%

## CCOC(=O)c1cn(C2CC2)c2cc(N3CCNCC3)c(F)cc2c1=O [CIPROFLOXACIN ETHYL ESTER]
[2]
  IC50: 26 µM
[7]
  Ratio CC50/IC50: 1.2
[14]
  CC50 at 48 h: > 30 µM

## O=C(O)c1cn(C2CC2)c2cc(N3CCNCC3)c(F)cc2c1=O [CIPROFLOXACIN]
[2]
  IC50: 52 µM

## N=C(N)c1ccc(OCCCCCOc2ccc(C(=N)N)cc2)cc1 [PENTAMIDINE]
[2]
  IC50: 0.0049 µM
